Reference: patent US11304919B2, “Utilization of cilastatin in inhibiting renal disorder” (NIIGATA UNIVERSITY, priority 2018, dated 2022)

What was measured:
[1] = test system: protein of interest (carrier; megalin ligand); assay: Binding of contrast solid-phased magnetic beads to carrier protein, WB (Reference Example 5); conditions: 0/3/10 mM iomeprol solid-phased beads; protein 25 ng/μL; 4° C., 4 h; FIG. 21
Excerpt: A substance that can serve as a carrier for an iodinated contrast medium was selected by reference to the information reported on megalin ligands. To be specific, one protein known to be filtered at the glomeruli and resorbed by renal proximal tubular epithelial cells via megalin was selected among megalin ligands.
The binding specificity between this protein and an iodinated contrast medium was verified using contrast solid-phased magnetic beads by following the procedures described below.
Five milligrams each of the 0 mM/3 mM/10 mM contrast solid-phased beads prepared in Reference Example 4 were dispersed and washed according to the procedure described in Reference Example 4. Next, the protein of interest (produced by LifeSpan BioSciences, Inc.) was dissolved in 100 mM KCL to prepare a 25 ng/μL solution. The above-washed beads were each dispersed in 200 μL of the prepared solution and reacted at 4° C. for 4 hours. Then, heat-eluted samples were prepared by following the procedure described in Reference Example 4.
The procedures for sample electrophoresis and WB analysis were performed in accordance with Reference Example 4. An antibody against the protein of interest (a polyclonal antibody produced by Bioss Inc.) was added at a concentration of 2 μg/mL and reacted at room temperature for 2 hours.

megalin [2] = assay: EPMA mapping of iodine in kidney tissue of kidney-specific megalin complete knockout (NDRG1-Cre) and control mice (Reference Example 2); conditions: kidney-specific megalin complete knockout mice; 200 μL tail vein; kidneys extracted 3 h later; FIGS. 4-9
Excerpt: (§1) EPMA is an electron microprobe (EMP) instrument that analyzes the constituent elements of a substance of interest by irradiating electron beams onto the substance and measuring the wavelengths and intensities of characteristic X-rays unique to the different elements, which are generated by the electron beams. […] The behaviors of contrast media per se can be verified by analyzing iodine content distribution.
(§2) In order to use right kidneys for analysis, 3 mm-thick sections containing a kidney pedicle portion were prepared, embedded in OCT compound, freeze-fixed with liquid nitrogen, and stored at −80° C.
(§3) Next, the stored sections were sliced at a thickness of 4 μm using a cryostat (CM1850, Leica Biosystems), and the obtained slices were attached onto carbon-coated grids and freeze-dried overnight.
(§4) 378 μm^2 cortical areas in the prepared tissue slices were analyzed by EPMA (EPMA 1610, Shimadzu Corporation, Kyoto, Japan) to map iodine present in the structures of the contrast media.

megalin [3] = molecular target: megalin (Mus musculus, UniProt A2ARV4); assay: as above; conditions: control (uninduced) mice; 200 μL tail vein; kidneys extracted 3 h later; FIGS. 4-9
Excerpt: as §1, §2, §3, §4

megalin [4] = molecular target: megalin (Rattus norvegicus, UniProt P98158); assay: Direct binding of contrast solid-phased magnetic beads to megalin in brush border proteins, WB with anti-megalin antibody (Reference Example 4); design: the cortex portions of Sprague-Dawley (SD) rats were ground to prepare a suspension; from tissue; host or cells: Sprague-Dawley rat kidney cortex (brush border proteins, method of Orlando et al.); conditions: 0 mM and 10 mM iomeprol solid-phased beads; rat BBP 1 mg/mL; 4° C., 4 h; FIG. 20
Experimental: Direct binding between an iodinated contrast medium and megalin was verified using contrast solid-phased magnetic beads.
A starting powder of iodinated contrast medium was dissolved, just before use, in glycidylmethacrylate-coated magnetic beads (FG Beads®, particle size: 0.2 μm, produced by Tamagawa Seiki Co., Ltd.) to initiate chemical bonding between surface carboxyl groups and hydroxyl groups present in the contrast medium, whereby contrast solid-phased magnetic beads were prepared.
The contrast medium iomeprol was purchased from BOC Science.
At feed concentrations of 0 mM, 3 mM and 10 mM, iomeprol was brought to a solid phase by chemical bonding. The preparation of the iomeprol solid-phased beads was contracted to Tamagawa Seiki Co., Ltd.
According to the method of Orlando, et al. (Proc. Natl. Acad. Sci. USA, 1992, vol. 89, p. 6698-6702), the cortex portions of Sprague-Dawley (SD) rats were ground to prepare a suspension, which was adjusted to a protein concentration of 1 mg/mL to obtain a BBP solution.
Five milligrams each of the 0 mM and 10 mM contrast solid-phased magnetic beads were dispersed and washed in 200 μL of 100 mM KCL buffer (20 mM HEPES-NaOH (pH 7.9), 100 mM KCl, 1 mM MgCl2, 0.2 mM CaCl2), 0.2 mM EDTA, 10% (v/v) glycerol, 0.1% NP-40, 1 mM DTT, 0.2 mM PMSF). […]

megalin (Mus musculus, UniProt A2ARV4), sequence (A2ARV4 26-4660): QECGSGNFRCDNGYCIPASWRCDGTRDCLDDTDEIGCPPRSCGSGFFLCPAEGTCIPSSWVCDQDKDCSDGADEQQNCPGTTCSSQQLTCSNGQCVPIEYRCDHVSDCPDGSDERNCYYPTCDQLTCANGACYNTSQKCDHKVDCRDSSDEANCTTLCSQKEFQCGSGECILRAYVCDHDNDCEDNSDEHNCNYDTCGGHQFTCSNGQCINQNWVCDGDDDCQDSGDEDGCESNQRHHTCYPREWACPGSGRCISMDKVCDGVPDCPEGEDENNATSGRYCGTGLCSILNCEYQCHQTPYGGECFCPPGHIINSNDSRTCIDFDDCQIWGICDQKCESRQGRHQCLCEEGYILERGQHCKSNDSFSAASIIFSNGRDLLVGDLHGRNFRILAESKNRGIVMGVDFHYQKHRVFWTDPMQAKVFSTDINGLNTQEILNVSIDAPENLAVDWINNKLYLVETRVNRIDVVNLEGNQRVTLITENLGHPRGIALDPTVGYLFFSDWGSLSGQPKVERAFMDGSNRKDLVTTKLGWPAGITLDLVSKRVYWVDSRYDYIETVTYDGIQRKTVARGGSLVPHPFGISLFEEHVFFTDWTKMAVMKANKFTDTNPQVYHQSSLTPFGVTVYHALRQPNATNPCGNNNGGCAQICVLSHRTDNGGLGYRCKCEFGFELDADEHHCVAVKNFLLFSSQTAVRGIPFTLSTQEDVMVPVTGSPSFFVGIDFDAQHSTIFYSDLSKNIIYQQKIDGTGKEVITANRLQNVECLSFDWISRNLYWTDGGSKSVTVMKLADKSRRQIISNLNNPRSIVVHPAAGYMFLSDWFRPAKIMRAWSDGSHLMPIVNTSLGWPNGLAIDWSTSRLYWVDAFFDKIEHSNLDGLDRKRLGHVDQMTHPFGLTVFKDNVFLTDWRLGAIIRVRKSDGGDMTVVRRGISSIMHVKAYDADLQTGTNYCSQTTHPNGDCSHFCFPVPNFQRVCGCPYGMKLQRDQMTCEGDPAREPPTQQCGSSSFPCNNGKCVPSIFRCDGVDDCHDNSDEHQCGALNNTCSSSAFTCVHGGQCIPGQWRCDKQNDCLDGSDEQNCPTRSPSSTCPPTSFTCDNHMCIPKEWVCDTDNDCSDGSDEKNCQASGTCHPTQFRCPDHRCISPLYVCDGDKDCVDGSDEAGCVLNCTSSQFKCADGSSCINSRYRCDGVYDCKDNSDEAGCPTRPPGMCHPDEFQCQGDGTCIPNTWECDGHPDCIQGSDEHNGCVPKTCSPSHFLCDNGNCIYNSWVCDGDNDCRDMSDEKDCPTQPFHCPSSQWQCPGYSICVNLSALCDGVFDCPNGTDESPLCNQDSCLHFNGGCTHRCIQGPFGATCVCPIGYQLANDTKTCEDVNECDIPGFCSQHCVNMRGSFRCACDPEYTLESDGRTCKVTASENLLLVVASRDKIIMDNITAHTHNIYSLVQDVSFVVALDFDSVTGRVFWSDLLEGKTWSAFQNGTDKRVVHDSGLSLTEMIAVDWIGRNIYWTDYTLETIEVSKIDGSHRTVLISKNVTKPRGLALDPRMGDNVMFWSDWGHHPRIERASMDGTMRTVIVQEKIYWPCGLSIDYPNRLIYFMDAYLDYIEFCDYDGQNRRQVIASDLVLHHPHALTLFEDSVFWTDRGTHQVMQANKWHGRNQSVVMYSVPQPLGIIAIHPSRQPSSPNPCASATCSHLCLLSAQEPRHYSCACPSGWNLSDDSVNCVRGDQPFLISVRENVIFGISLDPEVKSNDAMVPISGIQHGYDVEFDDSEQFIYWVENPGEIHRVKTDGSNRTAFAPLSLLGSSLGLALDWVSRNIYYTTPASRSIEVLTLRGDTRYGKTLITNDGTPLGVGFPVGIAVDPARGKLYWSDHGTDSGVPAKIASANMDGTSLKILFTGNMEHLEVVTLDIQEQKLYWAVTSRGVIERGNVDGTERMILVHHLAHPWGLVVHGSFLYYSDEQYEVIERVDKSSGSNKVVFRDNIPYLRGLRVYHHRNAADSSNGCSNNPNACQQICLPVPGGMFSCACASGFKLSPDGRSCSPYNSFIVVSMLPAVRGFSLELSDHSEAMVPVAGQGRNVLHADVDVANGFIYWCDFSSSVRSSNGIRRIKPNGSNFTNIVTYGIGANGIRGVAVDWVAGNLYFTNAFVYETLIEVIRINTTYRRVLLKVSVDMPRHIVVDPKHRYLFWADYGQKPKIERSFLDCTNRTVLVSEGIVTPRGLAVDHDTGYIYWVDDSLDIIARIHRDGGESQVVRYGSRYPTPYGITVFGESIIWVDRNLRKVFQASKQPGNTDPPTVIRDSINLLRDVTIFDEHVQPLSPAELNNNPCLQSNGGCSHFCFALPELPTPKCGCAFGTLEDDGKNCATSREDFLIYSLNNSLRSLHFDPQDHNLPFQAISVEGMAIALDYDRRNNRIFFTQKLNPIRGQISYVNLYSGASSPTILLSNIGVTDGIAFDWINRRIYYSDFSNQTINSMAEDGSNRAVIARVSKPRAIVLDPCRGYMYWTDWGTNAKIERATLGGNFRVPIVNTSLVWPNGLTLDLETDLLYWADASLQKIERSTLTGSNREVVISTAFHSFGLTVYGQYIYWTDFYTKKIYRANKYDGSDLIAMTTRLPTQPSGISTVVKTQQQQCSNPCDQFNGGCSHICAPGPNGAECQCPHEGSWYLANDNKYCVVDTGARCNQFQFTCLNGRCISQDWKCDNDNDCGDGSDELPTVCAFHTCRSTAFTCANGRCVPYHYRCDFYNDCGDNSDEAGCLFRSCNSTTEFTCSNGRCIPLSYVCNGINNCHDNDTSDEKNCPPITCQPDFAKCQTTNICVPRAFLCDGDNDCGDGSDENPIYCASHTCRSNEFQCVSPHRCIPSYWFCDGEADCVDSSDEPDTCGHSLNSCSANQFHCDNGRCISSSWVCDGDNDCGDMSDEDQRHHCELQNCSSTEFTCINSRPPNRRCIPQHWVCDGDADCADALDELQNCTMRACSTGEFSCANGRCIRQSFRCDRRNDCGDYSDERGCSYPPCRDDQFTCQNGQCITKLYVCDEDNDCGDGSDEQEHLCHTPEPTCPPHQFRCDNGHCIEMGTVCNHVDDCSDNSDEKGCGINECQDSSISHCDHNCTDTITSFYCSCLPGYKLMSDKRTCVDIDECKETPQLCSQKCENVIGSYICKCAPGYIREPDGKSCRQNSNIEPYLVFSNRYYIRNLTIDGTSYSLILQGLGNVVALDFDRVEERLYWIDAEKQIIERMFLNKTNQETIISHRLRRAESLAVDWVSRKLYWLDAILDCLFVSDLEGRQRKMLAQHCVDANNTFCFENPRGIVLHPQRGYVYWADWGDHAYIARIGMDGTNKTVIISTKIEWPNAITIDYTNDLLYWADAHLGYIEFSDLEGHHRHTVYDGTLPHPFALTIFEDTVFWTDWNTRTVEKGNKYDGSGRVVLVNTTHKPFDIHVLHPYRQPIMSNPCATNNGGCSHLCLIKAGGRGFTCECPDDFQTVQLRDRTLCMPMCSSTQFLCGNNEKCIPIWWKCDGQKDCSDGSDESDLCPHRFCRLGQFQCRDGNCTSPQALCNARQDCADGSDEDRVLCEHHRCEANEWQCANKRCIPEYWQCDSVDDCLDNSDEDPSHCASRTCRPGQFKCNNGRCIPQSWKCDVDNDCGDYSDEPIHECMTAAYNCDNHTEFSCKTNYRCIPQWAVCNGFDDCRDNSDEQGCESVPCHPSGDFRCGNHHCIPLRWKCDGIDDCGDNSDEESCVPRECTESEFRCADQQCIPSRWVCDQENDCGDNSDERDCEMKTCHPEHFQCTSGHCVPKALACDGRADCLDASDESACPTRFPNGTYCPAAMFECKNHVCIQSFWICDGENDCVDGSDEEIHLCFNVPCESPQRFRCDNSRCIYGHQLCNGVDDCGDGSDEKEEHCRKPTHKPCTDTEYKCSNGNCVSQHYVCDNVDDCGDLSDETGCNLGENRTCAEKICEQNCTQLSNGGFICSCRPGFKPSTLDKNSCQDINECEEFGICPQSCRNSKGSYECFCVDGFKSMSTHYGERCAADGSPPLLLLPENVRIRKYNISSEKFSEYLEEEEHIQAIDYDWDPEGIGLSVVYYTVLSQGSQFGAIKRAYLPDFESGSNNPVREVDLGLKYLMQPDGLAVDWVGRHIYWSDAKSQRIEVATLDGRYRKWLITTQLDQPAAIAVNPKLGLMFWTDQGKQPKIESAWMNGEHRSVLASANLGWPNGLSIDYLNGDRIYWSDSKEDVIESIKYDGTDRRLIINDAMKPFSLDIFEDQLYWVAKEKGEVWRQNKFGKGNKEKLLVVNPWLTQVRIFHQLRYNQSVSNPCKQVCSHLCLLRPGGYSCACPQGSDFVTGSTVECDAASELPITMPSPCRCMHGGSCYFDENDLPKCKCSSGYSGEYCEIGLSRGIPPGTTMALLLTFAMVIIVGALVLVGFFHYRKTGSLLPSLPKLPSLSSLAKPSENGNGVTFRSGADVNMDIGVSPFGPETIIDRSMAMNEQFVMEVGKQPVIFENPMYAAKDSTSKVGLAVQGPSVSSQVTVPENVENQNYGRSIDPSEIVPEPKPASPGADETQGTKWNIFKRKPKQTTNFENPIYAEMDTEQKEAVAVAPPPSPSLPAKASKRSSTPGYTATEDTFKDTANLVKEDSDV

## CN(C(=O)CO)c1c(I)c(C(=O)NCC(O)CO)c(I)c(C(=O)NCC(O)CO)c1I (stereo not shown) [iomeprol]
[1]
  binding of protein of interest to contrast solid phased on beads (WB band, heat-eluted samples): bound in a specific manner
Megalin [2]
  iodine contents detected in kidney slices by EPMA, NDRG1-Cre mice versus control mice: lower
Megalin [3]
  iodine detected in kidney slices by EPMA, control mice: High concentrations of iodine were detected
Megalin [4]
  megalin band in eluted samples after reaction of BBP with contrast medium-bound beads (WB): not detected
